# Laboratory results: patent US12285407B2, “Bis-indolylmethane derivatives and uses thereof” (The University of The West Indies, priority 2018, dated 2025)
# Like-named read-outs stand apart in the source and are kept apart here.
# Key:
# [1] = tested on: Escherichia coli O157:H7; experiment: Rescue concentrations of SP-BIM that reactivate antibiotic; type: cell-based; settings: Escherichia coli
# [2] = tested on: MRSA; experiment: Adjuvant broth microdilution (antibiotic MIC with SP-BIM at 50 μg/mL); type: cell-based, Staphylococcus aureus; settings: Staphylococcus aureus, antibiotic alone, Table 4, read-out: MIC of antibiotic, No compound
# [3] = tested on: Escherichia coli; experiment: microbe, parasite or virus in culture; type: cell-based; settings: read-out: MIC of antibiotic, No compound
# [4] = tested on: Klebsiella pneumoniae; experiment: Adjuvant broth microdilution (antibiotic MIC with SP-BIM at 50 μg/mL); type: cell-based; settings: Klebsiella pneumoniae; antibiotic alone; Table 7; read-out: MIC of antibiotic, No compound
# [5] = tested on: Staphylococcus aureus; experiment: Checkerboard synergy (FICI) of antibiotics with SP-BIM; type: cell-based; settings: Staphylococcus aureus, Staphylococcus aureus; for MIC: 24 h, antibiotic alone, read-out: MIC antibiotic only
# [6] = tested on: Streptococcus pneumoniae; experiment: as above; type: cell-based; settings: for MIC: 24 h, antibiotic alone, read-out: MIC antibiotic only
# [7] = tested on: Bacillus cereus; experiment: as above; type: cell-based; settings: for MIC: 24 h, antibiotic alone, read-out: MIC antibiotic only
# [8] = tested on: Enterococcus faecium; experiment: as above; type: cell-based; settings: Enterococcus faecium, Enterococcus faecium; for MIC: 24 h, antibiotic alone, read-out: MIC antibiotic only
# [9] = tested on: Klebsiella pneumoniae; experiment: as above; type: cell-based; settings: for MIC: 24 h, antibiotic alone, read-out: MIC antibiotic only
# [10] = tested on: Escherichia coli; experiment: as above; design: MIC SP-BIM 13 only / MIC in combination: Antibiotic: unit not given beside the values; settings: for MIC: 24 h
# [11] = tested on: Candida albicans; experiment: as above; design: MIC SP-BIM 13 only / MIC in combination: Antibiotic / MIC antibiotic only: unit not given beside the values
# [12] = SP-BIM 9 in combination with the labelled antibiotic
# [13] = SP-BIM 13 in combination with the labelled antibiotic
# [14] = antibiotic in combination with SP-BIM 9
# [15] = antibiotic in combination with SP-BIM 13
# [16] = Streptococcus pneumonia (title: Streptococcus pyogenes), antibiotic + SP-BIM 9
# [17] = Streptococcus pneumoniae, antibiotic + SP-BIM 13
# [18] = MIC of the antibiotic in combination with SP-BIM 13
compound,measurement,setting,value
"Oc1ccc2[nH]cc(C(c3cc(O)c(O)c(O)c3)c3c[nH]c4ccc(O)cc34)c2c1 [SP-BIM 27, 5-(bis(5-hydroxy-1H-indol-3-yl)methyl)benzene-1,2,3-triol]",MIC,[1]; read-out: MIC of SP-BIM 27,> 250 µg/mL
"Oc1ccc2[nH]cc(C(c3cccc(Br)c3)c3c[nH]c4ccc(O)cc34)c2c1 [SP-BIM 28, 3,3′-((3-bromophenyl)methylene)bis(1H-indol-5-ol)]",MIC,[1]; read-out: MIC SP-BIM 28,250 µg/mL
"COc1cc(Cc2cnc(N)nc2N)cc(OC)c1OC [Trimethoprim, trimethoprim]",MIC,[2],250 µg/mL
same,MIC,[3],2 µg/mL
same,MIC,[4],16 µg/mL
same,MIC,[5]; SP-BIM 9 checkerboard,1 µg/mL
same,MIC,[5]; SP-BIM 13 checkerboard,1 µg/mL
same,FIC of SP-BIM 9,[5]; [12],0.02
same,FIC of SP-BIM 13,[5]; [13],0.5
same,Interpretation,[5]; antibiotic + SP-BIM 9,Indifferent (Indifferent: FICI>1.0-4.0)
same,Σ FIC,[5]; antibiotic + SP-BIM 9,<2.02
same,Interpretation,[5]; antibiotic + SP-BIM 13,Antagonistic (Antagonistic: FICI≥4.0)
same,Σ FIC,[5]; antibiotic + SP-BIM 13,4.5
same,"MIC in combination, Antibiotic",[5]; [14],2.0 µg/mL
same,"MIC in combination, Antibiotic",[5]; [15],4 µg/mL
same,FIC of antibiotic,[5]; in combination with SP-BIM 9,2.00
same,FIC of antibiotic,[5]; in combination with SP-BIM 13,4.0
same,FIC of SP-BIM 9,"[6]; Streptococcus pneumonia (title: Streptococcus pyogenes), SP-BIM 9 in combination with the labelled antibiotic",0.06
same,Interpretation,[6]; [16],Synergy (Synergy: FICI≤0.5)
same,Σ FIC,[6]; [16],<0.31
same,"MIC in combination, Antibiotic","[6]; Streptococcus pneumonia (title: Streptococcus pyogenes), antibiotic in combination with SP-BIM 9",8 µg/mL
same,FIC of antibiotic,"[6]; Streptococcus pneumonia (title: Streptococcus pyogenes), in combination with SP-BIM 9",0.25
same,MIC,"[6]; Streptococcus pneumoniae, Streptococcus pneumonia (title: Streptococcus pyogenes), SP-BIM 9 checkerboard",32 µg/mL
same,MIC,"[6]; Streptococcus pneumoniae, Streptococcus pneumoniae, SP-BIM 13 checkerboard",32 µg/mL
same,FIC of SP-BIM 13,"[6]; Streptococcus pneumoniae, SP-BIM 13 in combination with the labelled antibiotic",1.0
same,Interpretation,[6]; [17],Antagonistic (Antagonistic: FICI≥4.0)
same,Σ FIC,[6]; [17],<4.9
same,"MIC in combination, Antibiotic","[6]; Streptococcus pneumoniae, antibiotic in combination with SP-BIM 13",125 µg/mL
same,FIC of antibiotic,"[6]; Streptococcus pneumoniae, in combination with SP-BIM 13",3.9
same,MIC,[7]; SP-BIM 9 checkerboard,> 250 µg/mL
same,MIC,[7]; SP-BIM 13 checkerboard,250 µg/mL
same,"MIC in combination, SP-BIM 9",[7]; SP-BIM 9 concentration in combination with the labelled antibiotic,16 µg/mL
same,FIC of SP-BIM 9,[7]; [12],0.064
same,FIC of SP-BIM 13,[7]; [13],1.0
same,Interpretation,[7]; antibiotic + SP-BIM 9,Synergy (Synergy: FICI≤0.5)
same,Σ FIC,[7]; antibiotic + SP-BIM 9,<0.1
same,Interpretation,[7]; antibiotic + SP-BIM 13,Indifferent (Indifferent: FICI>1.0-4.0)
same,Σ FIC,[7]; antibiotic + SP-BIM 13,2.0
same,"MIC in combination, Antibiotic",[7]; [14],2 µg/mL
same,"MIC in combination, Antibiotic",[7]; [15],250 µg/mL
same,FIC of antibiotic,[7]; in combination with SP-BIM 9,0.008
same,FIC of antibiotic,[7]; in combination with SP-BIM 13,1.00
same,MIC,[8]; SP-BIM 9 checkerboard,4 µg/mL
same,MIC,[8]; SP-BIM 13 checkerboard,4 µg/mL
same,FIC of SP-BIM 13,[8]; [13],1.0
same,Interpretation,[8]; antibiotic + SP-BIM 13,Antagonistic (Antagonistic: FICI≥4.0)
same,Σ FIC,[8]; antibiotic + SP-BIM 13,5.0
same,"MIC in combination, Antibiotic",[8]; [15],16 µg/mL
same,FIC of antibiotic,[8]; in combination with SP-BIM 13,4.0
same,MIC,[9]; SP-BIM 9 checkerboard,8 µg/mL
same,MIC,[9]; SP-BIM 13 checkerboard,8 µg/mL
same,FIC of SP-BIM 9,[9]; [12],0.5
same,FIC of SP-BIM 13,[9]; [13],1.0
same,Interpretation,[9]; antibiotic + SP-BIM 9,Indifferent (Indifferent: FICI>1.0-4.0)
same,Σ FIC,[9]; antibiotic + SP-BIM 9,<1.5
same,Interpretation,[9]; antibiotic + SP-BIM 13,Indifferent (Indifferent: FICI>1.0-4.0)
same,Σ FIC,[9]; antibiotic + SP-BIM 13,<3.0
same,"MIC in combination, Antibiotic",[9]; [14],8 µg/mL
same,"MIC in combination, Antibiotic",[9]; [15],16 µg/mL
same,FIC of antibiotic,[9]; in combination with SP-BIM 9,1
same,FIC of antibiotic,[9]; in combination with SP-BIM 13,2.0
same,MIC,"[10]; read-out: MIC antibiotic only, Escherichia coli, antibiotic alone",2 µg/mL
same,MIC,"[10]; read-out: MIC antibiotic only, Escherichia coli, antibiotic alone, SP-BIM 9 checkerboard",2 µg/mL
same,MIC in combination: Antibiotic,[10]; [18],8
same,FIC of SP-BIM 9,[10]; [12],0.128
same,FIC of SP-BIM 13,[10]; [13],1.0
same,Interpretation,[10]; antibiotic + SP-BIM 9,Antagonistic (Antagonistic: FICI≥4.0)
same,Σ FIC,[10]; antibiotic + SP-BIM 9,<4.1
same,Interpretation,[10]; antibiotic + SP-BIM 13,Antagonistic (Antagonistic: FICI≥4.0)
same,Σ FIC,[10]; antibiotic + SP-BIM 13,<5.0
same,"MIC in combination, Antibiotic",[10]; [14],8 µg/mL
same,FIC of antibiotic,[10]; combination with SP-BIM 13,4.0
same,FIC of antibiotic,[10]; in combination with SP-BIM 9,4
same,MIC,"[11]; 24 h, read-out: MIC antibiotic only",> 250 µg/mL
same,MIC in combination: Antibiotic,[11]; [18],250
same,FIC of SP-BIM 13,[11]; [13],1.0
same,Interpretation,[11]; antibiotic + SP-BIM 13,Indifferent (Indifferent: FICI>1.0-4.0)
same,Σ FIC,[11]; antibiotic + SP-BIM 13,<2.0
same,FIC of antibiotic,[11]; combination with SP-BIM 13,1.0
